{
  "source": "paper PMC3842914",
  "about": "“Meleagrin, a New FabI Inhibitor from Penicillium chryosogenum with at Least One Additional Mode of Action” (PLoS ONE, 2013)",
  "key": {"[1]": {"test_system": "E. coli EW1b", "assay": "Overexpression assay, MIC for pump-negative (tolC) E. coli EW1b", "type": "cell-based", "settings": "Escherichia coli", "method": "(§1) Whole-cell antimicrobial activity was determined by broth microdilution as described previously. The test strains except for S. pneumoniae were grown to mid-log phase in Mueller–Hinton broth and diluted 1,000-fold in the same medium. Cells (10^5/mL) were inoculated into Mueller–Hinton broth and dispensed at 0.2 mL/well into a 96-well microtiter plate. S. pneumoniae was grown in tryptic soy broth supplemented with 5% sheep blood. MICs were determined in triplicate by serial 2-fold dilutions of test compounds. […] Bacterial growth was determined by measuring the absorption at 650 nm by using a microtiter ELISA reader.\n(§2) An overexpression assay using S. aureus RN4220, S. aureus RN4220 (pE194), and S. aureus RN4220 (pE194-fabI) was conducted to perform target validation of FabI inhibitors as described previously. Additionally, both fabI- and fabK-overexpressing E. coli were constructed to test a multitarget effect of the compounds. The wild-type fabI gene from the genomic DNA of E. coli W3110 was amplified by PCR by using the primers 5′-[…]-3′ and 5′-[…]-3′. The wild-type fabK gene from the genomic DNA of S. pneumoniae KCTC 5412 was amplified by PCR by using the primers 5′-[…]-3′ and 5′-[…] […]-3′. The resulting products were cloned into the pBAD-TOPO TA expression vector (Invitrogen, Carlsbad, CA, USA) to yield the pBAD-fabI and pBAD-fabK recombinant plasmids, which placed the expression of the genes fabI and fabK, respectively, under the control of the arabinose promoter. Recombinant pBAD-fabI and pBAD-fabK were then introduced into the pump-negative (tolC) E. coli EW1b via electroporation to generate E. coli EW1b (pBAD-fabI) and E. coli EW1b (pBAD-fabK), respectively."}, "[2]": {"test_system": "E. coli EW1b(pBAD)", "assay": "Overexpression assay, MIC for vector-containing E. coli EW1b (pBAD)", "type": "cell-based", "settings": "Escherichia coli", "method": "as §1, §2"}, "[3]": {"test_system": "E. coli EW1b(pBAD-fabI)", "assay": "Overexpression assay, MIC for fabI-overexpressing E. coli EW1b (pBAD-fabI)", "type": "cell-based", "settings": "Escherichia coli", "method": "as §1, §2"}, "[4]": {"test_system": "E. coli EW1b(pBAD-fabK)", "assay": "Overexpression assay, MIC for fabK-overexpressing E. coli EW1b (pBAD-fabK)", "type": "cell-based", "settings": "Escherichia coli", "method": "as §1, §2"}, "[5]": {"molecular_target": "T1, S. aureus FabI (Staphylococcus aureus, UniProt Q6GI75)", "T1 construct": "made in house", "T1 sequence (Q6GI75 1-256)": "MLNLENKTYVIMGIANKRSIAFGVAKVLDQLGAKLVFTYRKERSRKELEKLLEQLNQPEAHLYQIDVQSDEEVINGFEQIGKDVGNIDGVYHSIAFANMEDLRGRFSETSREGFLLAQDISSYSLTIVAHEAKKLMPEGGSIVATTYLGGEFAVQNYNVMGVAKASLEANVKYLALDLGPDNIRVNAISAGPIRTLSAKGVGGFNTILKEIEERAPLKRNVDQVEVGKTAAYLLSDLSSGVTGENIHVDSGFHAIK", "assay": "S. aureus FabI enzyme assay (NADPH use at 340 nm, t-o-NAC thioester substrate)", "type": "biochemical", "source_text": "S. aureus FabI and E. coli FabI enzymes were cloned, overexpressed, and purified as described previously. The wild-type fabK gene was amplified by PCR from genomic DNA obtained from Streptococcus pneumoniae KCTC 5412 by using the primers 5′-[…]-3′ and 5′-[…]-3′, which contained NdeI and XhoI restriction sites, respectively. After the DNA sequence was confirmed, the gene was cloned into the pET22b vector (Novagen, Gibbstown, NJ, USA). The construct was transformed into E. coli BL21 (DE3) for expression following induction with isopropylthiogalactoside. The C-terminal His-tagged protein was purified as described previously. Assays were conducted in half-area, 96-well microtiter plates. The compounds were dissolved in DMSO and evaluated in 100-μL assay mixtures containing components specific for each enzyme (see below). Reduction of the trans-2-octenoyl N-acetylcysteamine (t-o-NAC thioester) substrate analog was measured spectrophotometrically following the utilization of NADH or NADPH at 340 nm at 30°C for the linear period of the assay. S. aureus FabI assays contained 50 mM sodium acetate (pH 6.5), 200 μM t-o-NAC thioester, 200 μM NADPH, and 150 nM S. aureus FabI.\nNADH was used as a cofactor rather than NADPH for the E. coli FabI assay. Substrate concentrations used for the Lineweaver–Burk plot were 100, 200, 300, and 400 μM, whereas the concentrations of the cofactor were 100, 200, 400, and 600 μM. The rate of decrease in the amount of NADPH in each reaction was measured with a microtiter enzyme-linked immunosorbent assay (ELISA) reader by using the SOFTmax PRO software (Molecular Devices, Sunnyvale, CA, USA). The inhibitory activity was calculated according to the following formula: % of inhibition = 100× [1− (rate in the presence of compound/rate in the untreated control)]. IC50 values were calculated by fitting the data to a sigmoid equation. An equal volume of DMSO solvent was used for the untreated control. FabK assays contained 100 mM sodium acetate (pH 6.5), 2% glycerol, 200 mM NH4Cl, 50 µM t-o-NAC thioester, 200 µM NADH, and 150 nM S. pneumoniae FabK."}, "[6]": {"test_system": "S. aureus RN4220", "assay": "MIC by broth microdilution, S. aureus RN4220 (wild type)", "type": "cell-based, Staphylococcus aureus", "settings": "Staphylococcus aureus; S. aureus RN4220 (wild type)", "method": "as §1"}, "[7]": {"test_system": "S. aureus RN4220 (pE194)", "assay": "Overexpression assay, MIC for vector-containing S. aureus RN4220 (pE194)", "type": "cell-based", "settings": "Staphylococcus aureus, read-out: MIC S. aureus (pE194)", "method": "as §1, §2"}, "[8]": {"test_system": "S. aureus RN4220 (pE194-fabI)", "assay": "Overexpression assay, MIC for fabI-overexpressing S. aureus RN4220 (pE194-fabI)", "type": "cell-based", "settings": "Staphylococcus aureus, read-out: MIC S. aureus (pE194-fabI)", "method": "as §1, §2"}, "[9]": {"molecular_target": "T1, S. aureus FabI", "assay": "Fluorescence quenching assay (direct binding)", "settings": "increasing amounts of compound; FabI fluorescence at 307 nm", "method": "Fluorescence spectra were measured using a SHIMADZU fluorescence spectrophotometer (model RF-5310PC). […] Protein quenching was monitored at 25°C by using 5-nm excitation and 5-nm emission wavelength. The excitation wavelength was 280 nm, and the emission spectra were measured between 290 and 430 nm."}, "[10]": {"test_system": "S. aureus RN4220", "assay": "Inhibition of macromolecular biosynthesis (radiolabeled precursor incorporation) in S. aureus", "type": "cell-based, Staphylococcus aureus", "settings": "drugs at 2 times the MIC", "method": "(§3) To monitor the effects of compound 1 on lipid, DNA, RNA, protein, and cell wall biosynthesis, its effects on the incorporation of [1-^14C] acetate (50 mCi/mmol), [2-^14C] thymidine (59.8 mCi/mmol), [U-^14C] uridine (539 mCi/mmol), L-[U-^14C] leucine (306 mCi/mmol) or L-[U-^14C] isoleucine (329 mCi/mmol), and N-acetyl-D-[1-^14C] glucosamine (58.1 mCi/mmol) into S. aureus and S. pneumoniae were measured as described previously. S. aureus was exponentially grown to an A650 of 0.2 in Mueller–Hinton broth. S. pneumoniae was grown in tryptic soy broth supplemented with 5% sheep blood. […] An equal volume of DMSO solvent was added to the untreated control. After incubation with the radiolabeled precursors at 37°C for 1 h, followed by centrifugation, the cell pellets were washed twice with PBS buffer. After acetate incorporation, the total cellular lipids were extracted with chloroform-methanol-water. The incorporated radioactivity in the chloroform phase was measured by scintillation counting. For the other precursors, incorporation was terminated by adding 10% (w/v) TCA and cooling on ice for 20 min. The precipitated material was collected on Whatman GF/C glass microfiber filters, washed with TCA and ethanol, dried, and counted using a scintillation counter. The total counts incorporated at 1 h of incubation without inhibitors ranged from >7,000 for [U-^14C] uridine to <13,000 for [1-^14C] acetate. […] In all experiments, known antibacterial agents were included as positive controls."}, "[11]": {"test_system": "S. pneumoniae KCTC 3932", "assay": "Inhibition of macromolecular biosynthesis (radiolabeled precursor incorporation) in S. pneumoniae", "type": "cell-based, Streptococcus pneumoniae", "settings": "drugs at 2 times the MIC", "method": "as §3"}, "[12]": {"settings": "read-out: MIC E. coli EW1b (+) Ara"}, "[13]": {"settings": "read-out: MIC E. coli EW1b (−) Ara"}, "[14]": {"settings": "read-out: MIC E. coli EW1b(pBAD) (+) Ara"}, "[15]": {"settings": "read-out: MIC E. coli EW1b(pBAD) (−) Ara"}, "[16]": {"settings": "read-out: MIC E. coli EW1b(pBAD-fabI) (+) Ara"}, "[17]": {"settings": "read-out: MIC E. coli EW1b(pBAD-fabI) (−) Ara"}, "[18]": {"settings": "read-out: MIC E. coli EW1b(pBAD-fabK) (+) Ara"}, "[19]": {"settings": "read-out: MIC E. coli EW1b(pBAD-fabK) (−) Ara"}},
  "note": "Where two headings read alike, the source gives them in different places.",
  "data": [
    {"smiles": "CC1(C)S[C@@H]2[C@H](NC(=O)[C@H](N)c3ccccc3)C(=O)N2[C@H]1C(=O)O", "note": "[Ampicillin]", "values": [
      {"measurement": "MIC", "setting": "[1]; [12]", "result": 1, "unit": "µg/mL"},
      {"measurement": "MIC", "setting": "[1]; [13]", "result": 1, "unit": "µg/mL"},
      {"measurement": "MIC", "setting": "[2]; [14]", "result": "> 125", "unit": "µg/mL"},
      {"measurement": "MIC", "setting": "[2]; [15]", "result": "> 125", "unit": "µg/mL"},
      {"measurement": "MIC", "setting": "[3]; [16]", "result": "> 125", "unit": "µg/mL"},
      {"measurement": "MIC", "setting": "[3]; [17]", "result": "> 125", "unit": "µg/mL"},
      {"measurement": "MIC", "setting": "[4]; [18]", "result": "> 125", "unit": "µg/mL"},
      {"measurement": "MIC", "setting": "[4]; [19]", "result": "> 125", "unit": "µg/mL"}
    ]},
    {"smiles": "Cc1onc(-c2ccccc2)c1C(=O)N[C@@H]1C(=O)N2[C@@H]1SC(C)(C)[C@@H]2C(=O)O", "note": "[Oxacillin, reference compound]", "values": [
      {"measurement": "IC50", "setting": "[5]", "result": "> 100", "unit": "µM"},
      {"measurement": "MIC", "setting": "[6]", "result": 0.25, "unit": "µg/mL"},
      {"measurement": "MIC", "setting": "[7]", "result": 0.25, "unit": "µg/mL"},
      {"measurement": "MIC", "setting": "[8]", "result": 0.25, "unit": "µg/mL"}
    ]},
    {"smiles": "NC[C@H]1O[C@H](O[C@H]2[C@H](O)[C@@H](O[C@H]3O[C@H](CO)[C@@H](O)[C@H](N)[C@H]3O)[C@H](N)C[C@@H]2N)[C@H](O)[C@@H](O)[C@@H]1O", "note": "[kanamycin, reference compound]", "values": [
      {"measurement": "Fluorescence quenching of S. aureus FabI", "setting": "[9]", "result": "did not"}
    ]},
    {"smiles": "CCCCC[C@H](CC(=O)NO)C(=O)N[C@H](C(=O)N1CCC[C@H]1CO)C(C)C", "note": "[Actinonin]", "values": [
      {"measurement": "MIC", "setting": "[1]; [12]", "result": 1, "unit": "µg/mL"},
      {"measurement": "MIC", "setting": "[1]; [13]", "result": 1, "unit": "µg/mL"},
      {"measurement": "MIC", "setting": "[2]; [14]", "result": 1, "unit": "µg/mL"},
      {"measurement": "MIC", "setting": "[2]; [15]", "result": 1, "unit": "µg/mL"},
      {"measurement": "MIC", "setting": "[3]; [16]", "result": 1, "unit": "µg/mL"},
      {"measurement": "MIC", "setting": "[3]; [17]", "result": 1, "unit": "µg/mL"},
      {"measurement": "MIC", "setting": "[4]; [18]", "result": 1, "unit": "µg/mL"},
      {"measurement": "MIC", "setting": "[4]; [19]", "result": 1, "unit": "µg/mL"}
    ]},
    {"smiles": "O=C(N[C@H](CO)[C@H](O)c1ccc([N+](=O)[O-])cc1)C(Cl)Cl", "note": "[chlorampenicol, chloramphenicol, reference compound]", "values": [
      {"measurement": "Inhibition of precursor incorporation, L-[U-14C] Isoleucine", "setting": "[10]", "result": 74, "unit": "%"},
      {"measurement": "Inhibition of precursor incorporation, L-[U-14C] Isoleucine", "setting": "[11]", "result": 85, "unit": "%"}
    ]}
  ]
}
